According to publication PMC10368370, “Development of o-aminobenzamide salt derivatives for improving water solubility and anti-undifferentiated gastric cancer” (Frontiers in Pharmacology, 2023):
“Also recorded” adds a separate entry of the source.

How the values were obtained:
[1] = system: HGC-27 cells; test: MTT cytotoxicity / anti-proliferation assay; type: cell-based, human; settings: HGC-27, MTT, 72 h; read-out: IC50, cancer cell viability
Description: Undifferentiated human gastric cancer cell line (HGC-27) was purchased from the China Center for Type Collection (CCTCC, China) and used with 10% Foetal Bovine Serum (FBS, Gemini, Bio-Product, CA, United States), 1% penicillin streptomycin (PS) and 89% 1,640 medium ([…]) for culture. All cells were incubated at 37°C in a constant temperature incubator containing 95% air and 5% CO2.
To evaluate the cytotoxicity of F8 and related organic salts on HGC-27 cells, MTT analysis was performed. HGC-27 cells were digested with trypsin, then cells were spread into 96-well plates at a density of 3,000 cells/well and incubated for 12–16 h. After 12 h, the medium in 96-well plates was replaced with compounds containing 1, 0.5, 0.25, 0.125, 0.062, 0.0312 μM for another 72 h. Three days later, 20 μL MTT solution was added and incubated at 37°C for 4 h. Then 150 μL DMSO solution was added to each well after the fluid was removed, and the absorbance was detected by microplate reader. The compound dissolved in DMSO was added to the cell medium so that the final concentration of DMSO was less than 0.4%.
Infinite proliferation is one of the most prominent features of cancer cells, therefore, we evaluated the anti-proliferation activity of compounds F8 and related organic salts against human gastric carcinoma HGC-27 via MTT assay.

[2] = system: MDA-MB-468; test: MTT cytotoxicity / anti-proliferation assay; type: cell-based; settings: MDA-MB-468, MTT, 72 h; read-out: IC50, cancer cell viability
[3] = system: SK-Hep-1; test: MTT cytotoxicity / anti-proliferation assay; type: cell-based; settings: SK-Hep-1, MTT, 72 h; read-out: IC50, cancer cell viability
[4] = system: HuH7; test: MTT cytotoxicity / anti-proliferation assay; type: cell-based; settings: 72 h, read-out: IC50, cancer cell viability
[5] = system: HCT-116; test: MTT cytotoxicity / anti-proliferation assay; type: cell-based; settings: HCT-116, MTT, 72 h; read-out: IC50, cancer cell viability
[6] = system: HCC-1806; test: MTT cytotoxicity / anti-proliferation assay; type: cell-based; settings: HCC-1806, MTT, 72 h; read-out: IC50, cancer cell viability
[7] = system: MCF-7; test: MTT cytotoxicity / anti-proliferation assay; type: cell-based; settings: MCF-7, MTT, 72 h; read-out: IC50, cancer cell viability
[8] = system: HCC-1937; test: MTT cytotoxicity / anti-proliferation assay; type: cell-based; settings: HCC-1937, MTT, 72 h; read-out: IC50, cancer cell viability
[9] = system: MDA-MB-231; test: MTT cytotoxicity / anti-proliferation assay; type: cell-based; settings: MDA-MB-231, MTT, 72 h; read-out: IC50, cancer cell viability
[10] = Solubility in aqueous solution (pure water, normal saline); type: physicochemical
[11] = Screening of F8 related organic salts (crystallinity, hygroscopicity, solubility, stability, irritability); type: physicochemical; settings: salt screening
Description: The selection of salt form is a key step to the success of drug development, which requires a well-designed screening strategy to find the salt form that meets the target performance. Although there are many kinds of counter ions, the commonly used ones are very limited.

[12] = In vivo acute toxicity study; design: species or system Kunming mice; settings: for LD50 at 14 days: both sexes, Kunming, mouse, in vivo
Description: We investigated the toxicity of F8·2HCl when administered in three different ways, and F8·2HCl was all dissolved with normal saline, and the concentration of intravenous and intraperitoneal injection was 8 mg/mL, and the concentration of intragastric administration was 10 mg/mL. Ninety Kunming mice (45 males and 45 females) weighing 18–22 g were divided into 15 groups (n = 6). The doses of F8·2HCl injected by tail vein were 40 mg/kg, 60 mg/kg, 90 mg/kg, 110 mg/kg, 135 mg/kg, 200 mg/kg, 300 mg/kg, 400 mg/kg and 500 mg/kg, respectively. Intraperitoneal injection of different doses of F8·2HCl were 200 mg/kg, 250 mg/kg, 300 mg/kg, 360 mg/kg and 500 mg/kg, respectively. We also added a dose of 600 mg/kg administered by gavage. All drugs administered were dissolved in normal saline. Toxicity was monitored for 14 days. During the monitoring period, the status of mice was observed and their body weight was recorded.
To evaluate the safety of F8·2HCl in vivo, acute toxicity studies were performed. First, six Kunming mice (half male and half female) were gavage with F8·2HCl at a single dose of 600 mg/kg.

[13] = system: HGC-27 xenograft; test: HGC-27 tumor xenograft model; type: in vivo, BALB/c nude mice; settings: p.o., bid; for tumor growth inhibition (TGI): 14 days, HGC-27 xenograft
Description: 4-week-old male BALB/c nude mice weighing 18g–22 g were injected with 100 μL HGC-27 cells (2 × 10^6 cells) to establish an undifferentiated gastric cancer model.
(A) Tumor volumes plotted as mean ± SEM. (B) Mice weight curve during treatment plotted as mean ± SD. (C,D) Tumor weight and size on the final day.

[14] = system: CDK2; test: Immunohistochemical analysis of HGC-27 xenograft tumor; type: in vivo; settings: vs blank group
Description: (§1) Then, immunohistochemical analysis was performed on the tumor of the HGC-27 xenograft tumor model. It is known that cyclin-dependent kinase 2 (CDK2) and CDK inhibitor p21 play pivotal parts in cell cycle regulation, while both downregulation of CDK2 or upregulation of p21 lead to cell cycle arrest ([[…] et al., 2019]; [Sturmlechner et al., 2021]). […] Ki-67 is an antigen associated with proliferating cells, which is usually positively correlated with tumor growth rate ([Menon et al., 2019]). […] Cleaved Caspase-3 is a pro-apoptotic protein, the higher the expression of this protein, the stronger […] ([Wei et al., 2020]). […] E-cadherin which is a type of cell surface transmembrane glycoprotein has an important influence on the cell-cell adhesion function. […] Representative tumor images of IHC analysis stained by CDK2, Cleaved Caspase-3, E-cadherin, KI-67 and p21. Magnification: × 400.

[15] = system: Cleaved Caspase-3; test: as above; type: in vivo; settings: vs blank group
Description: as §1

[16] = system: E-cadherin; test: as above; type: in vivo; settings: vs blank group
Description: as §1

[17] = system: Ki-67; test: as above; type: in vivo; settings: vs blank group
Description: as §1

[18] = system: p21; test: as above; type: in vivo; settings: vs blank group
Description: as §1

O=C(NCc1ccc(NC(=O)c2cc(F)ccc2N2CCCC2)cc1)OCc1cccnc1 [F8·2HCl]
IC50 [1]: 0.25 ± 0.01 µM
IC50 [2]: 1.42 ± 0.19 µM
IC50 [3]: 9.37 ± 0.91 µM
IC50 [4]: 10.9 ± 0.97 µM
IC50 [5]: 4.02 ± 0.28 µM
IC50 [6]: 16.2 ± 0.41 µM
IC50 [7]: 47.69 ± 0.15 µM
IC50 [8]: 48.81 ± 0.18 µM
IC50 [9]: 47 ± 0.62 µM
water solubility relative to compound F8 ([10]; F8·2HCl vs F8): more than 50 times
solubility in normal saline ([10]; normal saline, compared with pure water): not much different from pure water
Solubility in aqueous solution ([10]; pure water): more than 50 mg/mL
Crystalline [11]: crystallization
Hygroscopic [11]: Almost no moisture absorption
Stability [11]: remain stable under high temperature (80°C), acid, alkaline, oxidation and reduction conditions; also recorded: Keep stable in extreme environment
Solubility ([11]; water): Soluble
HE staining of heart, liver, spleen, lung, kidney ([12]; 200 mg/kg intraperitoneal injection): intact without any lesions
HE staining of heart, liver, spleen, lung, kidney ([12]; 600 mg/kg oral administration): intact without any lesions
LD50 at 14 days ([12]; ip, intraperitoneal injection, KM mice, 14 days): 303 mg/kg
LD50 at 14 days ([12]; intravenous injection, KM mice, 14 days): 153 mg/kg
survival and abnormal reactions ([12]; single dose 600 mg/kg by gavage, KM mice, 14 days): All the mice survived 14 days without any abnormal reactions
tumor growth inhibition (TGI) ([13]; 37.5 mg/kg): 60.6%
tumor growth inhibition (TGI) ([13]; 75 mg/kg): 70.1%
body weight of mice vs control group ([13]; 37.5 and 75 mg/kg, during treatment): no significant weight loss
tumor weight vs control group ([13]; 37.5 and 75 mg/kg, final day): significant decrease in tumor weight
expression of CDK2 (IHC) [14]: declined dose-dependently; also recorded: significantly decreased
expression of Cleaved Caspase-3 protein (IHC) [15]: significantly upregulated; also recorded: increased
expression level of E-cadherin protein (IHC) [16]: increase the expression level; also recorded: increased
expression of Ki-67 protein (IHC) [17]: significantly decreased
level of p21 protein (IHC) [18]: significantly upregulated
